Measured values reported in PubChem BioAssay AID330 (DTP/NCI, 2004).
“And” between values parts separate entries of the source, which are not always exact repeats. Identical values can stand only once. Toxic doses and inconclusive results are not listed.

Tested on: P388 leukemia ip, CD2F1 mice, survival T/C
Assay: NCI In Vivo Anticancer Drug Screen. Data for tumor model P388 Leukemia (intraperitoneal) in CD2F1 (CDF1) mice
Conditions: endpoint: median survival time, higher = longer survival
Summary of the method: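 Mice carrying the transplanted tumor received test compound or vehicle. Survival was recorded in each group, and the value is the treated-group measurement divided by that of the vehicle-treated control group.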

[1] = dose: 12.5 mg/kg/injection, schedule: Q01DX009 (ip), vehicle: saline
[2] = dose: 25.0 mg/kg/injection, schedule: Q01DX009 (ip), vehicle: saline
[3] = dose: 25.0 mg/kg/injection, schedule: Q04DX003 (ip), vehicle: saline
[4] = dose: 50.0 mg/kg/injection, schedule: Q04DX003 (ip), vehicle: saline
[5] = dose: 100.0 mg/kg/injection, schedule: Q04DX003 (ip), vehicle: saline
[6] = dose: 25.0 mg/kg/injection, schedule: Q01DX009 (ip), vehicle: saline with Tween-80
[7] = dose: 50.0 mg/kg/injection, schedule: Q01DX009 (ip), vehicle: saline with Tween-80
[8] = dose: 100.0 mg/kg/injection, schedule: Q01DX009 (ip), vehicle: saline with Tween-80
[9] = dose: 200.0 mg/kg/injection, schedule: Q01DX009 (ip), vehicle: saline with Tween-80
[10] = dose: 50.0 mg/kg/injection, schedule: Q01DX005 (ip), vehicle: saline with Tween-80
[11] = dose: 100.0 mg/kg/injection, schedule: Q01DX005 (ip), vehicle: saline with Tween-80
[12] = dose: 200.0 mg/kg/injection, schedule: Q01DX005 (ip), vehicle: saline with Tween-80
[13] = dose: 100.0 mg/kg/injection, schedule: Q04DX003 (ip), vehicle: saline with Tween-80
[14] = dose: 200.0 mg/kg/injection, schedule: Q04DX003 (ip), vehicle: saline with Tween-80
[15] = dose: 50.0 mg/kg/injection, schedule: Q01DX009 (ip), vehicle: saline
[16] = dose: 100.0 mg/kg/injection, schedule: Q01DX009 (ip), vehicle: saline
[17] = dose: 200.0 mg/kg/injection, schedule: Q01DX009 (ip), vehicle: saline
[18] = dose: 50.0 mg/kg/injection, schedule: Q01DX005 (ip), vehicle: Klucel (hydroxypropylcellulose) (HPC)
[19] = dose: 100.0 mg/kg/injection, schedule: Q01DX005 (ip), vehicle: Klucel (hydroxypropylcellulose) (HPC)
[20] = dose: 200.0 mg/kg/injection, schedule: Q01DX005 (ip), vehicle: Klucel (hydroxypropylcellulose) (HPC)
[21] = dose: 12.5 mg/kg/injection, schedule: Q01DX005 (ip), vehicle: Klucel (hydroxypropylcellulose) (HPC)

SMILES: N[C@H](C(=O)O)[C@H]1ON=C(Cl)[C@@H]1O
- T/C (dose: 0.13 mg/kg/injection, schedule: Q01DX009 (ip), vehicle: saline): 104 % of control and 98 % of control
- T/C (dose: 0.25 mg/kg/injection, schedule: Q01DX009 (ip), vehicle: saline): 106 % of control and 113 % of control
- T/C (dose: 0.5 mg/kg/injection, schedule: Q01DX009 (ip), vehicle: saline): 112 % of control
- T/C (dose: 1.0 mg/kg/injection, schedule: Q01DX009 (ip), vehicle: saline): 117 % of control and 121 % of control
- T/C (dose: 2.0 mg/kg/injection, schedule: Q01DX009 (ip), vehicle: saline): 124 % of control
- T/C (dose: 4.0 mg/kg/injection, schedule: Q01DX009 (ip), vehicle: saline): 153 % of control
- T/C (dose: 8.0 mg/kg/injection, schedule: Q01DX009 (ip), vehicle: saline): 153 % of control
- T/C (dose: 16.0 mg/kg/injection, schedule: Q01DX009 (ip), vehicle: saline): 198 % of control

SMILES: [Cl][Pt]([Cl])([Cl])[Cl]
- T/C [1]: 123 % of control
- T/C [2]: 111 % of control

SMILES: CCN(CC)CCC[Si]1(C)c2ccccc2CCc2ccccc21
- T/C [3]: 111 % of control
- T/C [4]: 102 % of control
- T/C [5]: 92 % of control

SMILES: S=C(Nc1nccs1)Nc1nccs1
- T/C (dose: 3.13 mg/kg/injection, schedule: Q01DX009 (ip), vehicle: Klucel (hydroxypropylcellulose) (HPC)): 98 % of control
- T/C (dose: 6.25 mg/kg/injection, schedule: Q01DX009 (ip), vehicle: Klucel (hydroxypropylcellulose) (HPC)): 98 % of control
- T/C (dose: 12.5 mg/kg/injection, schedule: Q01DX009 (ip), vehicle: Klucel (hydroxypropylcellulose) (HPC)): 95 % of control
- T/C (dose: 25.0 mg/kg/injection, schedule: Q01DX009 (ip), vehicle: Klucel (hydroxypropylcellulose) (HPC)): 92 % of control

SMILES: CCn1c2ccccc2c2ccc(N=Cc3ccc4ccccc4c3)cc21
- T/C (dose: 100.0 mg/kg/injection, schedule: Q04DX003 (ip), vehicle: saline + alcohol): 92 % of control
- T/C (dose: 200.0 mg/kg/injection, schedule: Q04DX003 (ip), vehicle: saline + alcohol): 97 % of control
- T/C (dose: 400.0 mg/kg/injection, schedule: Q04DX003 (ip), vehicle: saline + alcohol): 97 % of control

SMILES: C=C1C(=O)O[C@@H]2C[C@@]3(C)CCC[C@H](C)C3=C[C@H]12
- T/C [6]: 94 % of control
- T/C [7]: 98 % of control
- T/C [8]: 100 % of control
- T/C [9]: 100 % of control

SMILES: CSc1cnn(-c2ccccc2)[n+]1[O-]
- T/C [10]: 98 % of control
- T/C [11]: 110 % of control
- T/C [12]: 94 % of control

SMILES: COc1cc2c(cc1OC)C13CCCC4(OCCO4)C1=CC2(C)O3 (configuration not stated)
- T/C [7]: 101 % of control
- T/C [8]: 94 % of control
- T/C [9]: 93 % of control

SMILES: CCC(CN)C1=Nc2ccccc2C1 (configuration not stated)
- T/C [3]: 101 % of control
- T/C [4]: 96 % of control
- T/C [5]: 103 % of control and 111 % of control

SMILES: CSc1nc2nc[nH]c(=O)c2[nH]1
- T/C (dose: 25.0 mg/kg/injection, schedule: Q01DX005 (ip), vehicle: saline with Tween-80): 95 % of control
- T/C [10]: 99 % of control
- T/C [11]: 94 % of control

SMILES: C[Si](C)(C)c1c[nH]c(=O)[nH]c1=O
- T/C [7]: 102 % of control
- T/C [8]: 98 % of control and 96 % of control
- T/C [9]: 102 % of control

SMILES: CCOP(=O)(NN)OCC
- T/C [3]: 114 % of control
- T/C [4]: 97 % of control
- T/C [5]: 106 % of control
- T/C (dose: 200.0 mg/kg/injection, schedule: Q04DX003 (ip), vehicle: saline): 103 % of control

SMILES: COc1cccc(N(CCO)C2CCCCC2)c1
- T/C [13]: 100 % of control
- T/C [14]: 90 % of control
- T/C (dose: 400.0 mg/kg/injection, schedule: Q04DX003 (ip), vehicle: saline with Tween-80): 88 % of control

SMILES: Nc1ccc(Br)cc1C(=O)c1ccccc1
- T/C (dose: 12.5 mg/kg/injection, schedule: Q01DX009 (ip), vehicle: saline with Tween-80): 97 % of control
- T/C [6]: 94 % of control
- T/C [7]: 94 % of control
- T/C [15]: 87 % of control
- T/C [16]: 89 % of control
- T/C [17]: 116 % of control

SMILES: CC(=O)OC1CCC2(C)C3CCC4(C)C(=CCC5(C(=O)O)CCC(C)(C)CC45)C3(C)CCC2C1(C)C (configuration not stated)
- T/C (dose: 0.25 mg/kg/injection, schedule: Q01DX009 (ip), vehicle: saline + Tween-80 + alcohol): 97 % of control
- T/C (dose: 0.5 mg/kg/injection, schedule: Q01DX009 (ip), vehicle: saline + Tween-80 + alcohol): 101 % of control
- T/C (dose: 1.0 mg/kg/injection, schedule: Q01DX009 (ip), vehicle: saline + Tween-80 + alcohol): 106 % of control
- T/C (dose: 2.0 mg/kg/injection, schedule: Q01DX009 (ip), vehicle: saline + Tween-80 + alcohol): 97 % of control
- T/C (dose: 4.0 mg/kg/injection, schedule: Q01DX009 (ip), vehicle: saline + Tween-80 + alcohol): 106 % of control

SMILES: N=C(N)SCc1ccc(C(=O)Oc2ccc([N+](=O)[O-])cc2)cc1
- T/C [13]: 100 % of control
- T/C [14]: 104 % of control

SMILES: c1csc(C[N+]23CN4CN(CN(C4)C2)C3)c1
- T/C (dose: 130.0 mg/kg/injection, schedule: Q01DX009 (ip), vehicle: saline): 109 % of control
- T/C [17]: 118 % of control
- T/C (dose: 300.0 mg/kg/injection, schedule: Q01DX009 (ip), vehicle: saline): 123 % of control

SMILES: CCOc1nc(N)c(C(=O)c2ccc(O)c(O)c2)s1
- T/C [18]: 111 % of control
- T/C [19]: 109 % of control
- T/C [20]: 87 % of control

SMILES: Cc1c(=O)n(C)c2ccccc2[n+]1[O-]
- T/C (dose: 60.0 mg/kg/injection, schedule: Q01DX005 (ip), vehicle: saline with Tween-80): 96 % of control
- T/C (dose: 120.0 mg/kg/injection, schedule: Q01DX005 (ip), vehicle: saline with Tween-80): 93 % of control
- T/C (dose: 240.0 mg/kg/injection, schedule: Q01DX005 (ip), vehicle: saline with Tween-80): 100 % of control

SMILES: [N-]=[N+]=Nc1cccc(Nc2c3ccccc3nc3ccccc23)c1
- T/C (dose: 50.0 mg/kg/injection, schedule: Q01DX009 (ip), vehicle: Klucel (hydroxypropylcellulose) (HPC)): 98 % of control
- T/C (dose: 100.0 mg/kg/injection, schedule: Q01DX009 (ip), vehicle: Klucel (hydroxypropylcellulose) (HPC)): 100 % of control
- T/C (dose: 200.0 mg/kg/injection, schedule: Q01DX009 (ip), vehicle: Klucel (hydroxypropylcellulose) (HPC)): 107 % of control

SMILES: O=[N+]([O-])c1ccc2nnnn2c1
- T/C [15]: 100 % of control
- T/C [16]: 107 % of control
- T/C [17]: 100 % of control

SMILES: Cc1cccc(C)c1NC(=S)NC(=O)c1ccccc1
- T/C [7]: 100 % of control
- T/C [8]: 98 % of control
- T/C [9]: 100 % of control

SMILES: CNc1nc(NC)nc(NC)n1
- T/C [1]: 95 % of control
- T/C [2]: 104 % of control
- T/C [15]: 95 % of control
- T/C [16]: 93 % of control

SMILES: O=S(=O)(O)CN1CCN(CCN(CS(=O)(=O)O)CS(=O)(=O)O)CC1
- T/C [18]: 100 % of control
- T/C [19]: 100 % of control
- T/C [20]: 96 % of control

SMILES: CNC(=O)N(CCO)/N=C\c1ccc([N+](=O)[O-])o1
- T/C [18]: 99 % of control
- T/C [19]: 97 % of control
- T/C [20]: 103 % of control

SMILES: COc1ccc2ccc3c(c2c1)C(=O)CC3
- T/C (dose: 12.5 mg/kg/injection, schedule: Q01DX009 (ip), vehicle: distilled water + Tween-80): 101 % of control
- T/C (dose: 25.0 mg/kg/injection, schedule: Q01DX009 (ip), vehicle: distilled water + Tween-80): 98 % of control
- T/C (dose: 50.0 mg/kg/injection, schedule: Q01DX009 (ip), vehicle: distilled water + Tween-80): 107 % of control
- T/C (dose: 100.0 mg/kg/injection, schedule: Q01DX009 (ip), vehicle: distilled water + Tween-80): 98 % of control
- T/C (dose: 200.0 mg/kg/injection, schedule: Q01DX009 (ip), vehicle: distilled water + Tween-80): 98 % of control

SMILES: CC(C)Sc1nc(NC(=O)N(CCCl)N=O)cc(=O)[nH]1
- T/C [21]: 152 % of control

SMILES: Cc1nc2ccccc2[n]1[Sn]([CH3])([CH3])[n]1c(C)nc2ccccc21
- T/C [21]: 118 % of control
- T/C (dose: 25.0 mg/kg/injection, schedule: Q01DX005 (ip), vehicle: Klucel (hydroxypropylcellulose) (HPC)): 118 % of control
- T/C [18]: 112 % of control and 118 % of control

SMILES: CC(Oc1cc(Cl)c(Cl)cc1Cl)C(=O)NC(Cc1ccccc1)C(=O)O (configuration not stated)
- T/C [10]: 105 % of control
- T/C [11]: 109 % of control
- T/C [12]: 95 % of control

SMILES: CC1CC(O)C(=O)C2(C)C1CC1OC(=O)CC3C(C)C(=O)C(O)C2C13 (configuration not stated)
- T/C [10]: 100 % of control
- T/C [11]: 104 % of control
- T/C [12]: 99 % of control
